Data as given in patent US12063930B2, “Sulfonamide-containing 4-(N-methyl) aminopiperidine myricetin derivatives, preparation method and application” (Guizhou University, priority 2019, dated 2024).
Read-outs that look alike come from different tables or passages of the source.

Legend:
[1] = tested on: citrus canker pathogen (Xac); assay: Turbidimetric anti-plant bacterial activity test, citrus canker pathogen; type: cell-based, Xanthomonas axonopodis pv. citri
[2] = tested on: tobacco bacterial wilt pathogen (Rs); type: cell-based, Ralstonia solanacearum
[3] = tested on: rice bacterial wilt pathogen (Xoo); type: cell-based, Xanthomonas oryzae pv. oryzae

**Q.** Which “Inhibition Rate” value ([1]; 50 μg/mL) does the source give for COc1ccc(S(=O)(=O)N2CCC(N(C)CCCOc3c(-c4cc(OC)c(OC)c(OC)c4)oc4cc(OC)cc(OC)c4c3=O)CC2)cc1 [Compound I5] here?
**A.** Its value is 84.37 ± 1.91%.

**Q.** What about the “Inhibition Rate” value ([1]; 100 μg/mL) of the same compound?
**A.** The value was 95.86 ± 1.19%.

**Q.** What about the “Inhibition Rate” value ([2]; 50 μg/mL) of the same compound?
**A.** Its value is 18.66 ± 9.95%.

**Q.** What about the “Inhibition Rate” value ([2]; 100 μg/mL) of the same compound?
**A.** Its value is 49.03 ± 5.33%.

**Q.** And the “Inhibition Rate” value ([3]; 50 μg/mL)?
**A.** Its value is 56.37 ± 2.44%.

**Q.** What about the “Inhibition Rate” value ([3]; 100 μg/mL) of the same compound?
**A.** Its value is 68.42 ± 4.76%.

**Q.** Which results are given for COc1ccc(S(=O)(=O)N2CCC(N(C)CCCCOc3c(-c4cc(OC)c(OC)c(OC)c4)oc4cc(OC)cc(OC)c4c3=O)CC2)cc1 [Compound I15]?
**A.** Inhibition Rate ([1]; 50 μg/mL): 62.21 ± 1.33%; Inhibition Rate ([1]; 100 μg/mL): 67.94 ± 1.42%; Inhibition Rate ([2]; 50 μg/mL): 3.13 ± 5.57%; Inhibition Rate ([2]; 100 μg/mL): 24.02 ± 2.41%; Inhibition Rate ([3]; 50 μg/mL): 94.39 ± 0.62%; Inhibition Rate ([3]; 100 μg/mL): 96.11 ± 0.71%

**Q.** Which “Inhibition Rate” value ([1]; 50 μg/mL) does the source give for COc1cc(OC)c2c(=O)c(OCCCCN(C)C3CCN(S(=O)(=O)c4ccc([N+](=O)[O-])cc4)CC3)c(-c3cc(OC)c(OC)c(OC)c3)oc2c1 [Compound I16] here?
**A.** Its value is 66.33 ± 3.56%.

**Q.** What about the “Inhibition Rate” value ([1]; 100 μg/mL) of the same compound?
**A.** The value was 74.41 ± 1.31%.

**Q.** What about the “Inhibition Rate” value ([2]; 50 μg/mL) of the same compound?
**A.** Its value is 27.52 ± 7.50%.

**Q.** What about the “Inhibition Rate” value ([2]; 100 μg/mL) of the same compound?
**A.** Its value is 26.66 ± 4.37%.

**Q.** What about the “Inhibition Rate” value ([3]; 50 μg/mL) of the same compound?
**A.** Its value is 55.67 ± 6.24%.

**Q.** What about the “Inhibition Rate” value ([3]; 100 μg/mL) of the same compound?
**A.** The value was 70.41 ± 2.62%.

**Q.** How did the “Inhibition Rate” value ([1]; 50 μg/mL) turn out when COc1cc(OC)c2c(=O)c(OCCCN(C)C3CCN(S(=O)(=O)c4ccccc4)CC3)c(-c3cc(OC)c(OC)c(OC)c3)oc2c1 [Compound I7] was run?
**A.** Its value is 89.57 ± 2.14%.

**Q.** What about the “Inhibition Rate” value ([1]; 100 μg/mL) of the same compound?
**A.** The value was 92.48 ± 0.65%.

**Q.** What about the “Inhibition Rate” value ([2]; 50 μg/mL) of the same compound?
**A.** Its value is 50.24 ± 2.21%.

**Q.** What about the “Inhibition Rate” value ([2]; 100 μg/mL) of the same compound?
**A.** The value was 52.83 ± 6.66%.

**Q.** What about the “Inhibition Rate” value ([3]; 50 μg/mL) of the same compound?
**A.** The value was 48.01 ± 3.21%.

**Q.** And the “Inhibition Rate” value ([3]; 100 μg/mL)?
**A.** The value was 53.46 ± 2.80%.

**Q.** With COc1cc(OC)c2c(=O)c(OCCCCN(C)C3CCN(S(=O)(=O)c4ccc(F)cc4)CC3)c(-c3cc(OC)c(OC)c(OC)c3)oc2c1 [Compound I13] as the compound, how does the “Inhibition Rate” value ([1]; 50 μg/mL) read?
**A.** Its value is 47.25 ± 4.42%.

**Q.** What about the “Inhibition Rate” value ([1]; 100 μg/mL) of the same compound?
**A.** Its value is 48.08 ± 1.17%.

**Q.** And the “Inhibition Rate” value ([2]; 50 μg/mL)?
**A.** Its value is 43.16 ± 3.98%.

**Q.** And the “Inhibition Rate” value ([2]; 100 μg/mL)?
**A.** The value was 49.25 ± 4.14%.

**Q.** What about the “Inhibition Rate” value ([3]; 50 μg/mL) of the same compound?
**A.** Its value is 99.72 ± 1.10%.

**Q.** What about the “Inhibition Rate” value ([3]; 100 μg/mL) of the same compound?
**A.** Its value is 100.00 ± 0.67%.

**Q.** How did the “Inhibition Rate” value ([1]; 50 μg/mL) turn out when COc1cc(OC)c2c(=O)c(OCCCN(C)C3CCN(S(=O)(=O)c4ccc(F)cc4)CC3)c(-c3cc(OC)c(OC)c(OC)c3)oc2c1 [Compound I3] was run?
**A.** The value was 88.81 ± 1.32%.

**Q.** And the “Inhibition Rate” value ([1]; 100 μg/mL)?
**A.** The value was 94.73 ± 1.63%.

**Q.** And the “Inhibition Rate” value ([2]; 50 μg/mL)?
**A.** The value was 56.37 ± 3.41%.

**Q.** What about the “Inhibition Rate” value ([2]; 100 μg/mL) of the same compound?
**A.** Its value is 55.25 ± 2.35%.

**Q.** And the “Inhibition Rate” value ([3]; 50 μg/mL)?
**A.** Its value is 9.99 ± 7.64%.

**Q.** What about the “Inhibition Rate” value ([3]; 100 μg/mL) of the same compound?
**A.** The value was 53.31 ± 3.55%.

**Q.** What does the source list for COc1cc(OC)c2c(=O)c(OCCCCN(C)C3CCN(S(=O)(=O)c4ccc5cccnc5c4)CC3)c(-c3cc(OC)c(OC)c(OC)c3)oc2c1 [Compound I19]?
**A.** Inhibition Rate ([1]; 50 μg/mL): 85.44 ± 1.04%; Inhibition Rate ([1]; 100 μg/mL): 89.05 ± 0.47%; Inhibition Rate ([2]; 50 μg/mL): 37.71 ± 3.71%; Inhibition Rate ([2]; 100 μg/mL): 35.21 ± 6.56%; Inhibition Rate ([3]; 50 μg/mL): 38.72 ± 1.36%; Inhibition Rate ([3]; 100 μg/mL): 51.83 ± 2.05%

**Q.** With COc1cc(OC)c2c(=O)c(OCCCCN(C)C3CCN(S(=O)(=O)c4ccccc4[N+](=O)[O-])CC3)c(-c3cc(OC)c(OC)c(OC)c3)oc2c1 [Compound I20] as the compound, how does the “Inhibition Rate” value ([1]; 50 μg/mL) read?
**A.** The value was 96.57 ± 0.31%.

**Q.** What about the “Inhibition Rate” value ([1]; 100 μg/mL) of the same compound?
**A.** Its value is 97.30 ± 1.97%.

**Q.** What about the “Inhibition Rate” value ([2]; 50 μg/mL) of the same compound?
**A.** Its value is 21.26 ± 8.58%.

**Q.** And the “Inhibition Rate” value ([2]; 100 μg/mL)?
**A.** Its value is 4.11 ± 3.12%.

**Q.** What about the “Inhibition Rate” value ([3]; 50 μg/mL) of the same compound?
**A.** The value was 90.29 ± 4.84%.

**Q.** And the “Inhibition Rate” value ([3]; 100 μg/mL)?
**A.** The value was 94.47 ± 8.30%.

**Q.** How did the “Inhibition Rate” value ([1]; 50 μg/mL) turn out when COc1cc(OC)c2c(=O)c(OCCCN(C)C3CCN(S(=O)(=O)c4ccc5ccccc5c4)CC3)c(-c3cc(OC)c(OC)c(OC)c3)oc2c1 [Compound I2] was run?
**A.** The value was 92.76 ± 2.12%.

**Q.** What about the “Inhibition Rate” value ([1]; 100 μg/mL) of the same compound?
**A.** The value was 99.55 ± 5.61%.

**Q.** And the “Inhibition Rate” value ([2]; 50 μg/mL)?
**A.** The value was 34.17 ± 5.87%.

**Q.** And the “Inhibition Rate” value ([2]; 100 μg/mL)?
**A.** The value was 30.28 ± 8.79%.

**Q.** And the “Inhibition Rate” value ([3]; 50 μg/mL)?
**A.** The value was 88.53 ± 5.30%.

**Q.** And the “Inhibition Rate” value ([3]; 100 μg/mL)?
**A.** The value was 99.01 ± 4.53%.

**Q.** For COc1cc(OC)c2c(=O)c(OCCCCN(C)C3CCN(S(=O)(=O)c4ccc5ccccc5c4)CC3)c(-c3cc(OC)c(OC)c(OC)c3)oc2c1 [Compound I12], which “Inhibition Rate” value ([1]; 50 μg/mL) is on record?
**A.** Its value is 29.56 ± 7.62%.

**Q.** What about the “Inhibition Rate” value ([1]; 100 μg/mL) of the same compound?
**A.** The value was 35.81 ± 2.40%.

**Q.** And the “Inhibition Rate” value ([2]; 50 μg/mL)?
**A.** The value was 45.75 ± 3.32%.

**Q.** And the “Inhibition Rate” value ([2]; 100 μg/mL)?
**A.** Its value is 36.46 ± 7.42%.

**Q.** What about the “Inhibition Rate” value ([3]; 50 μg/mL) of the same compound?
**A.** Its value is 89.81 ± 1.34%.

**Q.** And the “Inhibition Rate” value ([3]; 100 μg/mL)?
**A.** The value was 95.44 ± 4.92%.

**Q.** Which results are given for COc1cc(OC)c2c(=O)c(OCCCN(C)C3CCN(S(=O)(=O)c4ccccc4[N+](=O)[O-])CC3)c(-c3cc(OC)c(OC)c(OC)c3)oc2c1 [Compound I10]?
**A.** Inhibition Rate ([1]; 50 μg/mL): 38.60 ± 4.17%; Inhibition Rate ([1]; 100 μg/mL): 45.69 ± 0.50%; Inhibition Rate ([2]; 50 μg/mL): 57.89 ± 3.30%; Inhibition Rate ([2]; 100 μg/mL): 94.99 ± 1.50%; Inhibition Rate ([3]; 50 μg/mL): 59.65 ± 2.25%; Inhibition Rate ([3]; 100 μg/mL): 67.71 ± 2.22%

**Q.** Which results are given for “bismerthiazol [Leaf Blight Azole, reference compound]”?
**A.** Inhibition Rate ([1]; 50 μg/mL): 50.60%; Inhibition Rate ([1]; 100 μg/mL): 66.63%; Inhibition Rate ([2]; 50 μg/mL): 57.63%; Inhibition Rate ([2]; 100 μg/mL): 65.69%; Inhibition Rate ([3]; 50 μg/mL): 39.14%; Inhibition Rate ([3]; 100 μg/mL): 60.50%

**Q.** COc1cc(OC)c2c(=O)c(OCCCCN(C)C3CCN(S(=O)(=O)c4cccs4)CC3)c(-c3cc(OC)c(OC)c(OC)c3)oc2c1 [Compound I14] was tested. Which “Inhibition Rate” value ([1]; 50 μg/mL) did it give?
**A.** The value was 66.18 ± 0.61%.

**Q.** And the “Inhibition Rate” value ([1]; 100 μg/mL)?
**A.** The value was 73.80 ± 3.68%.

**Q.** And the “Inhibition Rate” value ([2]; 50 μg/mL)?
**A.** The value was 20.44 ± 5.03%.

**Q.** What about the “Inhibition Rate” value ([2]; 100 μg/mL) of the same compound?
**A.** The value was 8.17 ± 3.75%.

**Q.** And the “Inhibition Rate” value ([3]; 50 μg/mL)?
**A.** Its value is 92.19 ± 0.98%.

**Q.** What about the “Inhibition Rate” value ([3]; 100 μg/mL) of the same compound?
**A.** The value was 95.49 ± 0.98%.

**Q.** For COc1cc(OC)c2c(=O)c(OCCCCN(C)C3CCN(S(=O)(=O)c4ccc(C)cc4)CC3)c(-c3cc(OC)c(OC)c(OC)c3)oc2c1 [Compound I11], which “Inhibition Rate” value ([1]; 50 μg/mL) is on record?
**A.** Its value is 47.25 ± 5.84%.

**Q.** What about the “Inhibition Rate” value ([1]; 100 μg/mL) of the same compound?
**A.** Its value is 54.94 ± 8.29%.

**Q.** What about the “Inhibition Rate” value ([2]; 50 μg/mL) of the same compound?
**A.** Its value is 46.83 ± 6.39%.

**Q.** What about the “Inhibition Rate” value ([2]; 100 μg/mL) of the same compound?
**A.** Its value is 93.56 ± 0.55%.

**Q.** What about the “Inhibition Rate” value ([3]; 50 μg/mL) of the same compound?
**A.** Its value is 71.76 ± 4.56%.

**Q.** What about the “Inhibition Rate” value ([3]; 100 μg/mL) of the same compound?
**A.** The value was 87.57 ± 2.76%.

**Q.** For Nc1nnc([S-])s1.Nc1nnc([S-])s1.[Cu+2] [Thiabenone, thiodiazole copper, reference compound], which “Inhibition Rate” value ([1]; 50 μg/mL) is on record?
**A.** The value was 44.97%.

**Q.** And the “Inhibition Rate” value ([1]; 100 μg/mL)?
**A.** The value was 70.68%.

**Q.** What about the “Inhibition Rate” value ([2]; 50 μg/mL) of the same compound?
**A.** The value was 20.86 ± 4.42%.

**Q.** What about the “Inhibition Rate” value ([2]; 100 μg/mL) of the same compound?
**A.** The value was 40.20%.

**Q.** What about the “Inhibition Rate” value ([3]; 50 μg/mL) of the same compound?
**A.** The value was 58.92%.

**Q.** And the “Inhibition Rate” value ([3]; 100 μg/mL)?
**A.** Its value is 70.12%.
